Results taken from US10837957B2, “In vitro model for pathological or physiologic conditions” (HemoShear, LLC, priority 2012, dated 2020).

Key:
[1] = system: cytochrome p450 1A/1B; assay: Cytochrome p450 activity assay (P450-GLO) in hepatocytes, induction
Experimental: (§3) Porous membrane segments roughly 2 cm^2 in area were excised and transferred to standard 24-well plates alongside corresponding static cultures. The cells were incubated with 500 μl of hepatocyte media containing substrates from commercially available P450-GLO kits (kits for luminescent cytochrome p450 assays) at the manufacturer-recommended concentrations. After 4 hours, the media was transferred to 96-well plates and assayed for luminescent metabolites to reflect cytochrome p450 activity as per the manufacturer protocol.
(§4) After 48 hours, on day 7, segments of the porous membrane from the devices containing hepatocytes cultured under controlled hemodynamics that were roughly 2.0 cm^2 in area were excised and transferred to standard 24-well plates and treated with substrates for the Cyp p450 enzymes in parallel to corresponding static cultures treated with the different agents. Cytochrome p450 assays were done on day 7 using commercially available P450-GLO kits. After 4 hours the media was transferred to 96-well plates and assayed for luminescent metabolites to reflect cytochrome p450 activity.

[2] = system: cytochrome p450 3A; assay: as above; type: cell-based, rat; details: controlled hemodynamics 0.6 dynes/cm^2, dexamethasone 02.5 μM, 48 hours, day 7; DMSO 11.64
Experimental: as §3, §4

[3] = system: primary rat hepatocytes; assay: Toxicity to hepatocytes cultured under controlled flow; details: 50 μM dexamethasone
Experimental: Cytochrome p450 assays were done on day 7 using commercially available P450-GLO kits. After 4 hours the media was transferred to 96-well plates and assayed for luminescent metabolites to reflect cytochrome p450 activity.

[4] = system: hepatocytes; assay: In vitro fatty liver model: lipid accumulation (Nile red, Oil Red O, total triglycerides); type: cell-based, rat; details: 1.5 μM pioglitazone, high insulin/glucose media
Experimental: Samples were then blocked in 5% goat serum, 0.2% blotting grade non-fat dry milk blocker, and 1% BSA in PBS for 45 minutes. The samples were then washed thrice in 0.1% BSA in PBS and incubated with 1:5000 dilution of Nile red (1 mM stock), 1:1000 DRAQS (a fluorescent DNA dye; Cell Signalling), 1:500 ALEXA FLUOR 488 conjugated phalloidin (Life Technologies), and 1% BSA in PBS for thirty minutes and protected from light. The samples were washed in 0.1% BSA in PBS thrice for five minutes each and mounted on glass cover slips using PROLONG GOLD antifade mounting media (an antifade reagent; Invitrogen). The samples were imaged on a Nikon C1+ Confocal System microscope. Oil Red O Assay: Accumulation of intracellular lipids within hepatocytes was assessed by adapting and modifying a commercially available Steatosis Colorimetric Assay Kit (Cayman Chemical). At the end of the culture period, 2 cm^2 sized porous membrane segments containing the hepatocytes from devices under healthy and steatotic conditions were washed with PBS and fixed in 4% paraformaldehyde for 30 minutes. […] The solution was then transferred to clear 96-well plates and absorbance was read at 490-520 nm in a spectrophotometer. Measurement of Total Triglycerides: Triglyceride content was assessed using a commercially available colorimetric assay kit (Cayman Triglyceride Colorimetric Assay Kit, Cat #10010303). […]

[5] = system: hepatocytes; assay: In vitro fatty liver model: RT-PCR of metabolic and lipid pathway genes; type: cell-based, rat; details: 1.5 μM pioglitazone, high insulin/glucose disease conditions
[6] = system: endothelial cells and smooth muscle cells; assay: Aldosterone in hemodynamic environment: gene array analysis; type: cell-based; details: aldosterone 1 mM vs vehicle; healthy and atheroprone
Experimental: Aldosterone at a concentration of 1 mM or a vehicle control (VEH) was added to the upper volume and RNA was collected for gene array analysis.

[7] = system: endothelial cells and smooth muscle cells; assay: ANG2 in hemodynamic environment: gene array analysis; type: cell-based; details: ANG2 10 nM (10.46 ng/ml) vs DMSO vehicle; healthy and atheroprone
Experimental: ANG2 at a concentration of 10 nM (10.46 ng/ml) or a DMSO vehicle control (VEH) was added to the upper volume and RNA was collected for gene array analysis.

[8] = system: endothelial cell/smooth muscle cell co-cultures; assay: HDL in hemodynamic environment; type: cell-based; details: HDL 45 μg/ml or 90 μg/ml, hemodynamic shear stress
Experimental: An additional component of plasma cholesterol distinct from nLDL or oxLDL is HDL. […] HDL was then added to the upper volume at a concentration of 45-1,000 μg/ml. This broad range reflects the broad range of HDL concentrations that can exist within human patients. HDL concentrations in individuals at risk for vascular disease are generally less than about 300 μg/ml, while HDL concentrations in healthy individuals range from greater than about 300 μg/ml up to about 2,000 μg/ml in healthy exercising patients.
In additional experiments, endothelial cell/smooth muscle cell co-cultures plated as described above were preconditioned for 16 hours with hemodynamic shear stress. From hours 16-24 the cells were additionally primed with 0.05 ng/ml TNFα and 50 μg/ml of oxLDL (compared to a vehicle control containing 50 μg/ml nLDL) in the upper volume. At 24 hours, 45 μg/ml or 90 μg/ml HDL was added to the media in the upper volume and hemodynamic shear stress was continued for the next 24 hours (hours 24-48).

[9] = system: NFκB; assay: Adenovirus NFκB-luciferase reporter in ECs and SMCs; type: cell-based
Experimental: (§1) Five different donor pairs were used to analyze the oxLDL (50 μg/ml) response compared to nLDL (50 μg/ml) within the atheroprone hemodynamic environment in endothelial cells and smooth muscle cells. […] Significant genes were considered using an FDR of 0.01. Gene expression results are reported as the relative expression of the gene as compared to the expression of β-2 microglobulin (B2M). Protein expression results are reported as the relative expression of the protein as compared to the expression of actin. Activity of NFκB was assessed using an adenovirus NFκB-luciferase (Ad-NFKB-luc) reporter infected in ECs and SMCs.

[10] = system: endothelial cells and smooth muscle cells; assay: oxLDL in hemodynamic environment: gene array, gene, protein and cytokine expression in co-culture; type: cell-based; details: for number of genes regulated as compared to nLDL: atheroprone, 50 μg/ml oxLDL vs 50 μg/ml nLDL
Experimental: Following 16-24 hours of shear stress preconditioning with atheroprotective or atheroprone hemodynamic forces, oxLDL was added to upper volume (containing the endothelial cells) at a concentration of 10-50 μg/ml (FIG. 5). In devices not receiving oxLDL, nLDL was added to the upper volume at the same concentration and used as a vehicle control. This concentration of oxLDL is similar to plasma concentrations of oxLDL observed in patients with cardiovascular disease. Shear stress application was continued for an additional 24 hours in the presence of oxLDL.
as §1

[11] = system: endothelial cells; assay: oxLDL and TNFα in hemodynamic environment: RT-PCR gene expression; type: cell-based; details: atheroprone
Experimental: To emulate more inflammatory stages of atherosclerosis, it is desirable to combine multiple circulating factors to better emulate the complexity found within human blood vessels. […] The media in the upper volume was then exchanged for media containing 0.05 ng/ml TNFα and 50 μg/ml of oxLDL. Media containing only 50 μg/ml of nLDL was used as a control.
Following 24 hours of shear stress preconditioning with atheroprotective or atheroprone hemodynamic forces, 50 μg/ml of oxLDL and 0.05 ng/ml of TNFα were added to upper volume (containing the endothelial cells). This concentration of TNFα is similar to plasma concentrations of TNFα observed in patients with cardiovascular disease. In devices not receiving oxLDL, nLDL was added to the upper volume at the same concentration and used as a vehicle control. Shear stress application was continued for an additional 24 hours in the presence of TNF-a and oxLDL (see FIG. 5). Gene expression analysis was performed using RT-PCR.

[12] = system: Endothelial/smooth muscle cell co-cultures; assay: Coculture thrombosis assay with shear stress, Protocol A (fibrin deposition); type: cell-based, human
Experimental: (§2) Human endothelial cells were co-cultured with or without smooth muscle cells in the presence or absence of human-derived, region-specific hemodynamics. Endothelial cells were exposed to TNFα at various concentrations and incubated in human, platelet-free plasma supplemented by ALEXA FLUOR 488 (A488, a fluorescent dye)-labeled fibrinogen. Conversion of A488-fibrinogen to A488-fibrin and deposition on the endothelium was quantified by confocal microscopy.
Following 24 hours of shear stress application (atheroprone or atheroprotective), the media was supplemented with TNFα at a concentration of 0.05 ng/mL or 0.10 ng/mL and shear stress was continued for an additional 24 hours, as shown in FIG. 3A. Media was then removed from both the upper and lower chambers, and both the endothelial cells and smooth muscle cells are washed twice with PBS. Endothelial cells were then incubated for 15 minutes at 37° C. with PFP supplemented with 37.5 μg/mL ALEXA-488 human fibrinogen, 20 μg/mL corn trypsin inhibitor, and 10 mM calcium, and fixed and imaged as described above for monocultures.

[13] = system: endothelial cells; assay: Static monoculture thrombosis assay (A488-fibrin deposition by confocal microscopy); type: cell-based, human; details: static conditions; for fibrin deposition, mean fluorescence intensity: 4 hours
Experimental: as §2
For static monocultures of endothelial cells, endothelial cells were plated at 100,000 cells/cm^2 on coverslips and allowed to adhere for 24 hours. After 24 hours, media was exchanged with media containing 0 ng/ml, 1 ng/ml, 10 ng/ml, or 20 ng/ml TNFα. Cells were incubated for 4 hours at 37° C. Following incubation, media was removed and cells were washed twice with PBS. Cells were then incubated an additional 15 minutes at 37° C. with Human Platelet Free Plasma (PFP) supplemented with 37.5 μg/mL ALEXA-488 human fibrinogen, 20 μg/mL corn trypsin inhibitor, and 10 mM calcium. This protocol is depicted in FIG. 1A. After 15 minutes, the cells were fixed with 4% paraformaldehyde (PFA) and stained with 0.5 nM SYT083 (a fluorescent nucleic acid stain) in 10 mM Tris, 1 mM EDTA buffer for 45 minutes. Coverslips were mounted onto coverglass using FLUOROMOUNT-G (a mounting agent) and imaged.

[14] = system: Tissue Factor Pathway Inhibitor (TFPI); assay: Expression of genes relevant to thrombosis in co-cultures under hemodynamic flow; type: cell-based, human; details: TNFα stimulation; both endothelial and smooth muscle cells
From the text: FIG. 2B depicts a heat map of relative gene expression in endothelial and smooth muscle cells (grown under atheroprone or atheroprotective conditions; see FIG. 2A) of several genes relevant to thrombosis. The relative changes in gene expression of Tissue Factor (F3) and Thrombomodulin (THBD) are presented below the heat map. Atheroprone hemodynamics up-regulate Tissue Factor (F3) compared to atheroprotective shear stress. […] In addition, TNFα stimulation reduces Tissue Factor Pathway Inhibitor (TFPI) in both endothelial and smooth muscle cells.

[15] = system: endothelial cells; assay: TNFα in hemodynamic environment: inflammatory gene expression; type: cell-based; details: 0.1-1 ng/ml TNFα, atheroprone hemodynamic forces; not seen at same levels in static
Experimental: Following 24 hours of shear stress preconditioning with atheroprotective or atheroprone hemodynamic forces, TNFα was added to upper volume (containing the endothelial cells) at a concentration of 0.05-1 ng/ml (see FIG. 5). This concentration of TNFα is similar to plasma concentrations of TNFα observed in patients with cardiovascular disease. Shear stress application was continued for an additional 24 hours in the presence of TNFα.

[16] = atheroprone hemodynamic environment

For `Cc1ccc2cc3c(ccc4ccccc43)c3c2c1CC3` [3-MC, 3-Methyl Cholanthrene], the “fold lower levels giving induction responses under controlled hemodynamics” value ([1]; compared to static (1 μM static, 0.1 μM controlled hemodynamics)) was 10 fold and the “1A/1B response to inducer (cytochrome p450 activity normalized to ATP)” value ([1]; controlled hemodynamics 0.6 dynes/cm^2, 3-MC 0.1 μM, 48 hours, day 7, DMSO 4.87) was 133.06.

`C[C@@H]1C[C@H]2[C@@H]3CCC4=CC(=O)C=C[C@]4(C)[C@@]3(F)[C@@H](O)C[C@]2(C)[C@@]1(O)C(=O)CO` [Dexamethasone, dexamethasone] was tested, and the “3A response to inducer (cytochrome p450 activity normalized to ATP)” value [2] was 57.53 and the toxicity [3] was “toxic”.

`CCc1ccc(CCOc2ccc(CC3SC(=O)NC3=O)cc2)nc1` (stereo not drawn) [Pioglitazone, pioglitazone] was tested, and the “total triglyceride content of hepatocytes” value [4] was “reduced” and the “expression of metabolic genes such as Cyp3A2” value [5] was “restored”.

With `C[C@]12CCC(=O)C=C1CC[C@@H]1[C@@H]2[C@@H](O)C[C@]2(C=O)[C@@H](C(=O)CO)CC[C@@H]12` [aldosterone, Aldosterone] the “inflammatory genes (gene array)” value [6] was “upregulated”.

“Angiotensin II (DRVYIHPF; Angiotensin-2; UniProt P01019 25-32, looked up) [ANG2]” was tested, and the “inflammatory genes (gene array)” value [7] was “upregulated”.

With high-density lipoprotein [HDL] the “activation of pro-inflammatory genes and proteins” value [8] was “blocking activation” and the atheroprotective genes [8] was “activates”.

With “oxidized low-density lipoprotein [oxLDL]” the “NFκB activity (luciferase reporter)” value ([9]; endothelial cells, atheroprone hemodynamics) was “further heightened”, the “NFκB signaling (luciferase reporter)” value ([9]; smooth muscle cells, oxLDL added to upper volume only) was “elevated NFKB signaling” and the “atheroprotective signaling (eNOS and KLF2) gene expression” value ([10]; atheroprone conditions) was “reduced atheroprotective signaling”. The “HO-1 and ATF3 gene expression” value ([10]; atheroprone conditions compared to traditional static, oxLDL 10-50 μg/ml vs nLDL) was “activates these genes at much higher levels”, the “inflammatory genes IL8 and E-Selectin (SELE) expression” value ([10]; atheroprone conditions, not regulated in static cultures) was “activate” and the VCAM-1 protein expression [10, 16] was “elevated”. The “phosphorylation of eNOS” value [10, 16] was “reduced phosphorylation”, the “secreted cytokines IL6, IL8 and MCP-1” value [10, 16] was “increased levels” and the “number of genes regulated as compared to nLDL” value ([10]; endothelial cells, 5 donors) was 688 genes. For the same compound, the “number of genes regulated as compared to nLDL” value ([10]; smooth muscle cells, 4 donors) was 304 genes, the “eNOS gene expression (NOS3)” value ([11]; 50 μg/ml oxLDL) was “reduced” and the “E-Selectin (SELE) gene expression” value ([11]; 50 μg/ml oxLDL vs nLDL control) was “higher levels”.

In the case of tumor necrosis factor-α [TNFα], the “fibrin deposition, mean fluorescence intensity” value ([12]; 0.05 ng/ml TNFα, 24 hours, atheroprone hemodynamics from internal carotid sinus, Protocol A) is reported as 1.9e7, the “fold lower levels of TNFα inducing fibrin deposition as compared to static cultures” value ([12]; atheroprone hemodynamic priming) is reported as 100- to 200 fold and the “fibrin deposition, mean fluorescence intensity” value ([13]; 1 ng/ml TNFα) is reported as 1.17e5. The “fibrin deposition, mean fluorescence intensity” value ([13]; 10 ng/ml TNFα) was 2.69e7, the “fibrin deposition, mean fluorescence intensity” value ([13]; 20 ng/ml TNFα) was 3.61e7 and the “TNFα concentration needed for activation relative to physiological levels” value [13] was “approximately 200 fold”. For the same compound, the “Tissue Factor Pathway Inhibitor (TFPI) expression” value [14] was “reduces” and the “inflammatory response (E-Selectin, ICAM, VCAM, IL8 expression)” value [15] was “induced an inflammatory response”.
